Results: patent publication US9340500B2, “Aromatic heterocyclic derivative having TRPV4-inhibiting activity” (SHIONOGI & CO., LTD., priority 2011, dated 2016)

Target: human TRPV4 (Homo sapiens (Human), UniProt Q9HBA0)
Assay: Test Example 1: measurement of TRPV4 inhibitory activity (Fluo 4-AM, FLIPR TETRA, 4α-PDD 1 μmol/L)
Assay type: cell-based
Conditions: hTRPV4/CHO cells; for IC50: 4α-PDD 1 μmol/L; for Ki: calculated from IC50 and 4α-PDD EC50
Method: For each compound, TRPV4 inhibitory activity was measured using cells.
(1) The TRPV4 inhibitory activity was measured using CHO-K1 cells stably expressing human TRPV4 (hTRPV4/CHO cells).
(2) In the day before the experimental day, frozen cell were thawed and washed with the culture medium (MEM-α, 10% FBS, 2 mmol/L GlutaMax, 50 unit Penicillin, 50 μg/mL Streptomycin). Then cells were suspended in the culture medium.
(3) The 384-well plates which hTRPV4/CHO cells were seeded at densities of 4000 cells/well in the culture medium and cultured in a CO2 incubator in the presence of 5% CO2 at 37° C. for overnight was used as assay plates.
(4) The assay plate was washed with assay buffer (Hanks, 20 mmol/L HEPES, 2.5 mmol/L probenecid, pH7.4), and the buffer were remained at 20 μL/well.
(5) 10 μl of dye loading buffer (9 μmol/L Fluo 4-AM, 0.09% Pluronic F-127/assay buffer) was added to each well, then the assay plate was incubated in a CO2 incubator in the presence of 5% CO2 at 37° C. for one hour. (final 3 μmol/L Fluo4-AM).
(6) The assay plate was washed with the assay buffer, and the buffers were remained at 20 μL/well. Then the assay plate was incubated for 10 min at room temperature.
(7) Diluted compound solution was dispensed to each well in the compound plate, and mixed with built-in Pipette and Mixer of the Fluorescence analysis system FLIPR TETRA (Molecular devices).
(8) After incubation for 5 min, 20 μL of 4α-PDD solution were applied to each well of assay plate and mixed with the FLIPR TETRA. (final 1 μmol/L 4α-PDD)
(9) The fluorescent intensity was measured with FLIPR TETRA system for 10 min from the point of time addition the compound solution, at Ex 470-495 nm, Em 515-575 nm wavelength.
TRPV4 inhibitory activity (IC50 value and Ki value) of a compound was evaluated according to the following procedure.
(10) In the presence of the compound, the difference between maximal and minimal of fluorescent intensity value for 5 min from just before addition of 4α-PDD solution was calculated, and it was referred as Max-Min value. Max-Min value of the Ruthenium Red at 20 μM was defined as 100% inhibitory activity, Max-Min value in the absence of the compound was defined as 0% inhibitory activity. The TRPV4 inhibitory activity of the compound was calculated by the following formula. (1−(Max-Min value of the compound−100% inhibitory activity)/(0% inhibitory activity−100% inhibitory activity))×100 (11) Inhibitory activity was calculated at 10 points with three fold serial dilution, in the final concentration of the compound from 10 μmmol/L to 0.5 nmol/L, the IC50 value was calculated by logistic approximation method. (12) In the absence of the compound, the fluorescent intensity was measured as the same method with 10, 1, 0.5, 0.2, and 0 μmol/L as final concentration of 4α-PDD. The difference of minimal and maximal fluorescent intensity value for 5 min from just before addition of 4α-PDD solution was calculated, and it was referred as Max-Min value. Max-Min value of the 4α-PDD at 10 μmol/L was defined as 100% activity, Max-Min value in the absence of 4α-PDD was defined as 0% activity. The TRPV4 activity of each concentration of 4α-PDD was calculated by the following formula. (Max-Min value of the each 4α-PDD concentration−0% activity)/(100% activity−0% activity))×100 (13) Effective activity was calculated in 5 concentrations of 4α-PDD the above. The EC50 value was calculated by logistic approximation method. The Ki value of a compound was calculated by the following formula. Ki (nmol/L)=IC50 value (nmol/L)/(1+[…] (test 4α-PDD concentration (nmol/L)/EC50 value (nmol/L))

human TRPV4, sequence (Q9HBA0 whole entry): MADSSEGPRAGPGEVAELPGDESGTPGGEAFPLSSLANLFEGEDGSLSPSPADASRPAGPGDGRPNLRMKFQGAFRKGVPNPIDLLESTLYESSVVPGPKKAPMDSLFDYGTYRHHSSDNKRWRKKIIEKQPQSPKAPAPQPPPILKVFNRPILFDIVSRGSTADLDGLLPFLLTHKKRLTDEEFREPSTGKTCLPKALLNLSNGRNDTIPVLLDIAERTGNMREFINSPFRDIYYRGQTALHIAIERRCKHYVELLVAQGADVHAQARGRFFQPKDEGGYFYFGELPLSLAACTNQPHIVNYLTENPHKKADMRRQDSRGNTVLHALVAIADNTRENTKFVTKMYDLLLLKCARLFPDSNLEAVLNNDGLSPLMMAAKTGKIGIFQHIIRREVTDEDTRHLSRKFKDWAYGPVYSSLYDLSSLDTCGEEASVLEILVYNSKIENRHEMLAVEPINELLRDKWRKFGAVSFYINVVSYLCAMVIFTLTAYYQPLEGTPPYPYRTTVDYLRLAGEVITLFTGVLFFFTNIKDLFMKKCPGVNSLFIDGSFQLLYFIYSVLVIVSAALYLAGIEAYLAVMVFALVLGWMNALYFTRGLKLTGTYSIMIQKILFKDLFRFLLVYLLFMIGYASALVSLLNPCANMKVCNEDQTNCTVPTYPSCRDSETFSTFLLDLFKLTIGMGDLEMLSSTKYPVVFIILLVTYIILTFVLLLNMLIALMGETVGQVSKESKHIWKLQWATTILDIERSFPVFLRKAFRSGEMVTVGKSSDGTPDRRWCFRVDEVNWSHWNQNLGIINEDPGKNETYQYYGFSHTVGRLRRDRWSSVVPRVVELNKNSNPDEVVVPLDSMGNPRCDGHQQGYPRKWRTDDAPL

Row | Compound | IC50 [µM] | Ki [µM]
1 | Cc1c(C(=O)Nc2cccc(C(F)(F)F)c2)cc(C(C)(C)C)n1C1CCNCC1 [Compound I-099] | 5.9 | 2.1
2 | Cc1c(C(=O)Nc2cccc(C(F)(F)F)c2)cc(C(C)(C)C)n1[C@H]1CC[C@H](N(C)C)CC1 [Compound I-113] | 5.8 | 1.5
3 | Cc1c(C(=O)Nc2cccc(C(F)(F)F)c2)cc(C(C)(C)C)n1CCC(=O)N1CCOCC1 [Compound I-091] | 1.5 | 0.56
4 | Cc1c(C(=O)Nc2cccc(C(F)(F)F)c2)cc(C(C)(C)C)n1[C@H]1CC[C@H](N)CC1 [Compound I-111] | 4.1 | 1.5
5 | Cc1c(C(=O)Nc2cccc(C(F)(F)F)c2)cc(C(C)(C)C)n1CCS(=O)(=O)N1CCNCC1 [Compound I-098] | 1.9 | 0.59
6 | Cc1c(C(=O)Nc2cccc(C(F)(F)F)c2)cc(C(C)(C)C)n1C1CCN(C)CC1 [Compound I-106] | 3.9 | 1.2
7 | CCOC(=O)CCn1c(C(C)(C)C)cc(C(=O)Nc2cccc(C(F)(F)F)c2)c1C [Compound I-090] | 1.1 | 0.38
8 | Cc1c(C(=O)Nc2cccc(C(F)(F)F)c2)cc(C2CCN(C(=O)OCc3ccccc3)CC2)n1CCCN1CCOCC1 [Compound I-075] | 0.27 | 0.13
9 | COC(=O)CN1CCC(n2c(C(C)(C)C)cc(C(=O)Nc3cccc(C(F)(F)F)c3)c2C)CC1 [Compound I-107] | 6.6 | 2.1
10 | Cc1c(C(=O)Nc2cccc(C(F)(F)F)c2)cc(C(C)(C)C)n1[C@H]1CC[C@@H](N)CC1 [Compound I-116] | 5.3 | 1.5
11 | Cc1c(C(=O)Nc2cccc(C(F)(F)F)c2)cc(C(C)(C)C)n1CCS(=O)(=O)N1CCOCC1 [Compound I-095] | 0.97 | 0.38
12 | Cc1c(C(=O)Nc2cccc(C(F)(F)F)c2)cc(C(C)(C)C)n1CC(C)(C)CN1CCOCC1 [Compound I-108] | 0.54 | 0.17
13 | CNCCCn1c(C(C)(C)C)cc(S(=O)(=O)Nc2cccc(C(F)(F)F)c2)c1C [Compound I-117] | 9.2 | 2.5
14 | Cc1c(S(=O)(=O)Nc2cccc(C(F)(F)F)c2)cc(C(C)(C)C)n1CCCN1CCOCC1 [Compound I-118] | 9.2 | 2.5
15 | CNC(C)CCn1c(C(C)(C)C)cc(C(=O)Nc2cccc(C(F)(F)F)c2)c1C (stereo not drawn) [Compound I-096] | 0.42 | 0.13
16 | Cc1c(-c2nc3ccccc3[nH]2)cc(C(C)(C)C)n1CCCN1CCOCC1 [Compound I-127] | 3.1 | 
17 | CNCC(C)(C)Cn1c(C(C)(C)C)cc(C(=O)Nc2cccc(C(F)(F)F)c2)c1C [Compound I-100] | 0.83 | 0.29
18 | Cc1c(C(=O)Nc2cccc(C(F)(F)F)c2)cc(C(C)(C)C)n1CCC(C)N1CCOCC1 (stereo not drawn) [Compound I-097] | 0.43 | 0.13
19 | Cc1c(C(=O)Nc2cccc(C(F)(F)F)c2)cc(C(C)(C)C)n1[C@H]1CC[C@@H](NS(C)(=O)=O)CC1 [Compound I-115] | 6 | 1.6
20 | Cc1c(C(=O)Nc2cccc(C(F)(F)F)c2)cc(C(C)(C)C)n1[C@H]1CC[C@@H](N(C)S(C)(=O)=O)CC1 [Compound I-120] | 3.5 | 1.1

Row | Compound | IC50 [µM] | Ki [µM]
21 | CNCC(F)(F)Cn1c(C(C)(C)C)cc(C(=O)Nc2cccc(C(F)(F)F)c2)c1C [Compound I-121] | 1.4 | 0.45
22 | Cc1c(-c2nc3ccccc3o2)cc(C(C)(C)C)n1CCCN1CCNCC1 [Compound I-126] | 4.5 | 
23 | Cc1c(C(=O)Nc2cccc(C(F)(F)F)c2)cc(C(C)(C)C)n1C1CCN(C2CCNCC2)CC1 [Compound I-109] | 6.3 | 2.3
24 | Cc1c(C(=O)Nc2cccc(C(F)(F)F)c2)cc(C2CCCCC2)n1CCCN1CCOCC1 [Compound I-072] | 0.045 | 0.021
25 | Cc1c(C(=O)Nc2cccc(C(F)(F)F)c2)cc(C(C)(C)C)n1CCC(=O)N1CCNCC1 [Compound I-093] | 1.4 | 0.53
26 | CC(=O)N1CCC(n2c(C(C)(C)C)cc(C(=O)Nc3cccc(C(F)(F)F)c3)c2C)CC1 [Compound I-101] | 7.4 | 2.6
27 | Cc1c(C(=O)Nc2cccc(C(F)(F)F)c2)cc(C(C)(C)C)n1CC(C)(C)CN1CCNCC1 [Compound I-123] | 1.4 | 0.45
28 | Cc1c(-c2nc3ccccc3[nH]2)cc(C(C)(C)C)n1CCCN1CCNCC1 [Compound I-128] | 5.4 | 
29 | Cc1c(C(=O)Nc2cccc(C(F)(F)F)c2)cc(C(C)(C)C)n1CC(F)(F)CN1CCOCC1 [Compound I-122] | 0.78 | 0.24
30 | CN[C@H]1CC[C@H](n2c(C(C)(C)C)cc(C(=O)Nc3cccc(C(F)(F)F)c3)c2C)CC1 [Compound I-112] | 5.6 | 1.5
31 | Cc1c(S(=O)(=O)NCc2cccc(C(F)(F)F)c2)cc(C(C)(C)C)n1CCCN1CCOCC1 [Compound I-104] | 7.7 | 2.7
32 | Cc1c(C(=O)Nc2cccc(C(F)(F)F)c2)cc(C(C)(C)C)n1CC(F)(F)CN1CCNCC1 [Compound I-125] | 1.5 | 
33 | CNCCCn1c(C(C)(C)C)cc(-c2nc3ccccc3[nH]2)c1C [Compound I-129] | 6.4 | 
34 | Cc1c(C(=O)Nc2cccc(C(F)(F)F)c2)cc(C(C)(C)C)n1CCC(C)N1CCNCC1 (stereo not drawn) [Compound I-124] | 0.26 | 
35 | Cc1c(C(=O)Nc2cccc(C(F)(F)F)c2)cc(C(C)(C)C)n1[C@H]1CC[C@H](NS(C)(=O)=O)CC1 [Compound I-114] | 8.7 | 2.3
36 | CNC(=O)CCn1c(C(C)(C)C)cc(C(=O)Nc2cccc(C(F)(F)F)c2)c1C [Compound I-092] | 6.4 | 2.4
37 | CNS(=O)(=O)CCn1c(C(C)(C)C)cc(C(=O)Nc2cccc(C(F)(F)F)c2)c1C [Compound I-094] | 6.1 | 2.2
38 | Cc1c(C(=O)Nc2cccc(C(F)(F)F)c2)cc(C(C)(C)C)n1C1CCN(S(C)(=O)=O)CC1 [Compound I-102] | 4.2 | 1.5
39 | Cc1c(C(=O)Nc2cccc(C(F)(F)F)c2)cc(C(C)(C)C)n1C1CCN(CCO)CC1 [Compound I-110] | 6.6 | 2.4
